Reference: publication PMC6956804, “Potent antibacterial activity of MSI-1 derived from the magainin 2 peptide against drug-resistant bacteria” (Theranostics, 2020)
Converted amounts (≈) assume the structure as drawn. Counter-ions that a name gives are not always drawn. Like-named read-outs stand apart in the source and are kept apart here. Peptide text beside a SMILES is read from it.

How the values were obtained:
PISP F34 = assay: microbe, parasite or virus in culture; type: cell-based, Streptococcus pneumoniae; settings: PISP F34, clinical strain
Method: (§1) Bacterial strains were purchased from the American Type Culture Collection (ATCC). All clinical strains were isolated from human clinical specimens by the Medical Laboratory Center of Zhongda Hospital (Nanjing, Jiangsu, China). Ndm-1, tem-1, ctx-m-1, shv-1 -carrying bacteria were constructed as previously described. The recombinant bacteria carrying drug-resistant genes were prepared in LB nutrient and induced by IPTG (1 mM) for 4 h before text. Other bacterial strains were respectively prepared in MHB and Columbia Blood Agar Base.
(§2) A standard micro-broth serial dilution assay was used to measure MIC of peptides. MIC was obtained by a microplate reader at 600 nm. MBC was determined as previously described.

PRSP P112 = assay: microbe, parasite or virus in culture; type: cell-based, Streptococcus pneumoniae
Method: as §1, §2

PRSP P105 = assay: microbe, parasite or virus in culture; type: cell-based, Streptococcus pneumoniae
Method: as §1, §2

PISP F22 = assay: microbe, parasite or virus in culture; type: cell-based, Streptococcus pneumoniae; settings: PISP F22, clinical strain
Method: as §1, §2

K. peneumoniae ATCC4352 = assay: organism not typed; type: cell-based
Method: as §1, §2

[1] = tested on: K. peneumoniae B4 (ESBLs (+)); assay: organism not typed; type: cell-based
Method: as §1, §2

[2] = tested on: K. peneumoniae B9 (ESBLs (+)); assay: organism not typed; type: cell-based
Method: as §1, §2

[3] = tested on: K. peneumoniae B6 (ESBLs (+)); assay: organism not typed; type: cell-based
Method: as §1, §2

[4] = tested on: P. aeruginosa T8 (ESBLs (+)); assay: microbe, parasite or virus in culture; type: cell-based
Method: as §1, §2

E. faecalis = assay: microbe, parasite or virus in culture; type: cell-based
Method: as §1, §2

E. coli A2 (ESBLs (+)) = assay: microbe, parasite or virus in culture; type: cell-based
Method: as §1, §2

[5] = tested on: P. aeruginosa T6 (ESBLs (+)); assay: microbe, parasite or virus in culture; type: cell-based
Method: as §1, §2

E. coli A9 (ESBLs (+)) = assay: microbe, parasite or virus in culture; type: cell-based
Method: as §1, §2

E. coli A5 (ESBLs (+)) = assay: microbe, parasite or virus in culture; type: cell-based
Method: as §1, §2

E. faecium = assay: microbe, parasite or virus in culture; type: cell-based
Method: as §1, §2

E. cloacae S3 (AmpC (+)) = assay: microbe, parasite or virus in culture; type: cell-based
Method: as §1, §2

S. pneumoniae ATCC 49619 = assay: microbe, parasite or virus in culture; type: cell-based
Method: as §1, §2

[6] = tested on: P. aeruginosa T1 (ESBLs (+)); assay: microbe, parasite or virus in culture; type: cell-based
Method: as §1, §2

S. aureus ATCC25923 = assay: microbe, parasite or virus in culture; type: cell-based
Method: as §1, §2

S. epidermidis ATCC35984 = assay: microbe, parasite or virus in culture; type: cell-based
Method: as §1, §2

Shigella flexneri = assay: microbe, parasite or virus in culture; type: cell-based
Method: as §1, §2

E. cloacae S1 (AmpC (+)) = assay: microbe, parasite or virus in culture; type: cell-based
Method: as §1, §2

E. coli ATCC25922 = assay: microbe, parasite or virus in culture; type: cell-based; settings: micro-broth serial dilution, 600 nm
Method: as §1, §2

P. aeruginosa ATCC27853 = assay: microbe, parasite or virus in culture; type: cell-based
Method: as §1, §2

MSSE E3 = assay: microbe, parasite or virus in culture; type: cell-based, Staphylococcus epidermidis; settings: MSSE E3, clinical strain
Method: as §1, §2

MRSE N104 = assay: microbe, parasite or virus in culture; type: cell-based, Staphylococcus epidermidis
Method: as §1, §2

MSSE E8 = assay: microbe, parasite or virus in culture; type: cell-based, Staphylococcus epidermidis; settings: MSSE E8, clinical strain
Method: as §1, §2

MRSE N109 = assay: microbe, parasite or virus in culture; type: cell-based, Staphylococcus epidermidis
Method: as §1, §2

MSSA D1 = assay: microbe, parasite or virus in culture; type: cell-based, Staphylococcus aureus; settings: MSSA D1, clinical strain
Method: as §1, §2

MSSA D4 = assay: microbe, parasite or virus in culture; type: cell-based, Staphylococcus aureus; settings: MSSA D4, clinical strain
Method: as §1, §2

MRSA M101 = assay: microbe, parasite or virus in culture; type: cell-based, Staphylococcus aureus
Method: as §1, §2

MRSA M108 = assay: microbe, parasite or virus in culture; type: cell-based, Staphylococcus aureus
Method: as §1, §2

[7] = tested on: penicillin resistant-E. coli isolates; assay: Acute systemic E. coli infection in mice; type: in vivo, BALB/c mice; settings: 7 days; polymyxin 5 mg/kg
Method: BALB/c mice (5-6 weeks) were purchased from the Laboratory Animal Center of Yangzhou University (Yangzhou, Jiangsu, China) and intraperitoneally (ip) injected with 500 μl (5× 10^8 CFU/ml) of penicillin resistant-E. coli isolates. Mice in MSI-1 treated groups (10, 5 and 2.5 mg/kg, n=16/group) and polymyxin treated group (5 mg/kg) were administered after 2 h post bacterial inoculation. After 12 h, six mice in each group were anesthetized with pentobarbital sodium (50 mg/kg body weight, i.p) and euthanized by cervical dislocation to count bacterial colonies in blood, lung, spleen, kidney and liver. Lung homogenates were collected for Gram staining. Moreover, serum TNF-α and IL-6 were measured by ELISA kits. The procedure of H&E staining for mouse lung was adapted from a published report. The survival and weight of other mice were monitored daily up to 7 days.

[8] = tested on: Penicillin-resistant E. coli; assay: Local E. coli infection in scalded mouse model; type: in vivo, mice; settings: 7th day; MSI-1 5 and 10 mg/kg, polymyxin B; p<0.01 vs the model group
Method: To further investigate whether MSI-1 could protect from bacterial infection of the skin, mice were anesthetized with pentobarbital sodium (50 mg/kg, i.p) and shaved on the dorsal surfaces. The depilated skin was secured with 2-cm-diameter plastic containers that filled up with boiling water at contact time 10 s. Afterwards, a full-thickness wound (2 cm in diameter) was cut on the burned skin of each mouse. Penicillin-resistant E. coli suspension (100 µl, 1× 10^10 CFU/ml) was slowly inoculated over wound with a pipette tip, and a gentle stream of air was aimed over the inoculation site until skin appeared wet but absent of any standing volume from the inoculum suspension. Two hours later, vehicle (3% CMC-Na), MSI-1 or polymyxin, which was suspended in sterile CMC-Na (3%) in PBS at concentration of 10, 5, 2.5 mg/ml (MSI-1) or 5 mg/ml (polymyxin), was inoculated on the same area with a pipette tip, 1 ml/kg, once a day (n=15 per group). Mice were fed in cages individually to avoid cross infection and were treated daily for 7 consecutive days. At 3rd and 7th days, cutaneous wound healing and bacteria counts in skin lesion were measured. Moreover, 12 h after the last treatment, blood samples were collected from the retro-orbital venous plexus under anesthesia (pentobarbital sodium, 50 mg/kg). Finally, all animals were euthanized by cervical dislocation to collect the lung samples for counting live bacteria. The contents of TNF-α and IL-6 in skin homogenates and serum were measured by ELISA. Skin lesion was fixed by 4% paraformaldehyde for H&E staining. The expression levels of EGF and VEGF in skin lesion were examined by immunohistochemistry. In addition, the wound scratch assay was also performed on HaCaT cells to further test whether MSI-1 improved wound healing by promoting keratinocyte migration.

[9] = Streptococcus pneumoniae, read-out: MIC
[10] = Staphylococcus aureus, read-out: MIC
[11] = Staphylococcus epidermidis, read-out: MIC
[12] = Staphylococcus epidermidis, MRSE

CC1(C)S[C@@H]2[C@H](NC(=O)Cc3ccccc3)C(=O)N2[C@H]1C(=O)O [Penicillin, Penicillin G sodium salt]
MIC (PISP F34; [9]): 0.5 µg/mL | MIC (PRSP P112; Streptococcus pneumoniae, PRSP): > 256 µg/mL | MIC (PRSP P105; Streptococcus pneumoniae, PRSP): > 256 µg/mL | MIC (PISP F22; [9]): 1 µg/mL | MIC (K. peneumoniae ATCC4352; read-out: MIC): 1 µg/mL | MIC [1]: > 256 µg/mL | MIC [2]: > 256 µg/mL | MIC [3]: > 256 µg/mL | MIC ([4]; Pseudomonas aeruginosa): > 256 µg/mL | MIC (E. faecalis; Enterococcus faecalis, read-out: MIC): > 256 µg/mL | MIC (E. coli A2 (ESBLs (+)); Escherichia coli): > 256 µg/mL | MIC ([5]; Pseudomonas aeruginosa): > 256 µg/mL | MIC (E. coli A9 (ESBLs (+)); Escherichia coli): > 256 µg/mL | MIC (E. coli A5 (ESBLs (+)); Escherichia coli): > 256 µg/mL | MIC (E. faecium; Enterococcus faecium, read-out: MIC): > 256 µg/mL | MIC (E. cloacae S3 (AmpC (+)); Enterobacter cloacae): > 256 µg/mL | MIC (S. pneumoniae ATCC 49619; Streptococcus pneumoniae, ATCC49619, read-out: MIC): 0.25 µg/mL | MIC ([6]; Pseudomonas aeruginosa): > 256 µg/mL | MIC (S. aureus ATCC25923; [10]): 0.125 µg/mL | MIC (S. epidermidis ATCC35984; [11]): 0.5 µg/mL | MIC (Shigella flexneri): > 256 µg/mL | MIC (E. cloacae S1 (AmpC (+)); Enterobacter cloacae): > 256 µg/mL | MIC (E. coli ATCC25922; Escherichia coli, read-out: MIC): 0.25 µg/mL | MIC (P. aeruginosa ATCC27853; Pseudomonas aeruginosa, read-out: MIC): 0.5 µg/mL | MIC (MSSE E3; [11]): 2 µg/mL | MIC (MRSE N104; [12]): > 256 µg/mL | MIC (MSSE E8; [11]): 1 µg/mL | MIC (MRSE N109; [12]): > 256 µg/mL | MIC (MSSA D1; [10]): 0.5 µg/mL | MIC (MSSA D4; [10]): 0.125 µg/mL | MIC (MRSA M101; Staphylococcus aureus, MRSA): > 256 µg/mL | MIC (MRSA M108; Staphylococcus aureus, MRSA): > 256 µg/mL

Polymyxin B
body weight [7]: marked weight maintenance effect | bacterial colonies in the lung and blood [8]: obviously decreased

CC[C@H](C)[C@H](NC(=O)CN)C(=O)NCC(=O)N[C@@H](CCCCN)C(=O)N[C@@H](Cc1ccccc1)C(=O)N[C@@H](CC(C)C)C(=O)N[C@@H](CCCCN)C(=O)N[C@@H](CCCCN)C(=O)N[C@@H](C)C(=O)N[C@@H](CCCCN)C(=O)N[C@@H](CCCCN)C(=O)N[C@@H](Cc1ccccc1)C(=O)NCC(=O)N[C@@H](CCCCN)C(=O)N[C@@H](C)C(=O)N[C@@H](Cc1ccccc1)C(=O)N[C@H](C(=O)N[C@@H](CCCCN)C(=O)N[C@H](C(=O)N[C@@H](CC(C)C)C(=O)N[C@@H](CCCCN)C(=O)N[C@@H](CCCCN)C(N)=O)[C@@H](C)CC)C(C)C [MSI-78, pexiganan] (H-GIGKFLKKAKKFGKAFVKILKK-NH2)
MIC (PISP F34): 32 µg/mL (≈ 12.9 µM) | MIC (PRSP P112; PRSP P112, clinical strain): 32 µg/mL (≈ 12.9 µM) | MIC (PRSP P105; PRSP P105, clinical strain): 16 µg/mL (≈ 6.46 µM) | MIC (PISP F22): 16 µg/mL (≈ 6.46 µM) | MIC (K. peneumoniae ATCC4352): 8 µg/mL (≈ 3.23 µM) | MIC ([1]; K. peneumoniae B4 (ESBLs (+)), clinical strain): 16 µg/mL (≈ 6.46 µM) | MIC ([2]; K. peneumoniae B9 (ESBLs (+)), clinical strain): 32 µg/mL (≈ 12.9 µM) | MIC ([3]; K. peneumoniae B6 (ESBLs (+)), clinical strain): 16 µg/mL (≈ 6.46 µM) | MIC ([4]; P. aeruginosa T8 (ESBLs (+)), clinical strain): 16 µg/mL (≈ 6.46 µM) | MIC (E. faecalis): 16 µg/mL (≈ 6.46 µM) | MIC (E. coli A2 (ESBLs (+)); E. coli A2 (ESBLs (+)), clinical strain): 8 µg/mL (≈ 3.23 µM) | MIC ([5]; P. aeruginosa T6 (ESBLs (+)), clinical strain): 16 µg/mL (≈ 6.46 µM) | MIC (E. coli A9 (ESBLs (+)); E. coli A9 (ESBLs (+)), clinical strain): 16 µg/mL (≈ 6.46 µM) | MIC (E. coli A5 (ESBLs (+)); E. coli A5 (ESBLs (+)), clinical strain): 16 µg/mL (≈ 6.46 µM) | MIC (E. faecium): 8 µg/mL (≈ 3.23 µM) | MIC (E. cloacae S3 (AmpC (+)); E. cloacae S3 (AmpC (+)), clinical strain): 16 µg/mL (≈ 6.46 µM) | MIC (S. pneumoniae ATCC 49619): 16 µg/mL (≈ 6.46 µM) | MIC ([6]; P. aeruginosa T1 (ESBLs (+)), clinical strain): 32 µg/mL (≈ 12.9 µM) | MIC (S. aureus ATCC25923): 16 µg/mL (≈ 6.46 µM) | MIC (S. epidermidis ATCC35984): 16 µg/mL (≈ 6.46 µM) | MIC (Shigella flexneri): 32 µg/mL (≈ 12.9 µM) | MIC (E. cloacae S1 (AmpC (+)); E. cloacae S1 (AmpC (+)), clinical strain): 16 µg/mL (≈ 6.46 µM) | MIC (E. coli ATCC25922): 16 µg/mL (≈ 6.46 µM) | MIC (P. aeruginosa ATCC27853): 16 µg/mL (≈ 6.46 µM) | MIC (MSSE E3): 32 µg/mL (≈ 12.9 µM) | MIC (MRSE N104; MRSE N104, clinical strain): 32 µg/mL (≈ 12.9 µM) | MIC (MSSE E8): 16 µg/mL (≈ 6.46 µM) | MIC (MRSE N109; MRSE N109, clinical strain): 16 µg/mL (≈ 6.46 µM) | MIC (MSSA D1): 16 µg/mL (≈ 6.46 µM) | MIC (MSSA D4): 32 µg/mL (≈ 12.9 µM) | MIC (MRSA M101; MRSA M101, clinical strain): 32 µg/mL (≈ 12.9 µM) | MIC (MRSA M108; MRSA M108, clinical strain): 16 µg/mL (≈ 6.46 µM)
